Molecules are shown by their SMILES.

One assay addresses T1, truncated His-MBP-Tev-KLHDC2 (residues 1-363) (Homo sapiens, UniProt Q9Y2U9).
T1 construct: truncated His -MBP-Tev-KLHDC2 (residues 1-363) purified from E. coli; made in house; host or cells: E. coli
T1 sequence (Q9Y2U9 1-363): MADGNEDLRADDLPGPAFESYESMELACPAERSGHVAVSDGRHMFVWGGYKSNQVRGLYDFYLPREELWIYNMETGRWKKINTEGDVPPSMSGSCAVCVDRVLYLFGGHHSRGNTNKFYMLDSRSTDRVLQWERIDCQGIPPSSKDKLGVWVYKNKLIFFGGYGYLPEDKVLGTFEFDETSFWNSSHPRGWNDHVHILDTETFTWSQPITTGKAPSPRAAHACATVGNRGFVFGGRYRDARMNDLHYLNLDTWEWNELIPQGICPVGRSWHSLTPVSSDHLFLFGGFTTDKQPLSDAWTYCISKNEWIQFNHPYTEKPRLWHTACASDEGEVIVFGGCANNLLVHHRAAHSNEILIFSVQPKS
The assay can be described thus: KLHDC2 HTRF binding assay. Particulars: 1 nM KLHDC2 (residues 1-363), fluorescein-labeled diglycine peptide probe.
Turning to `O=C(O)Cn1cc(NC(=O)[C@@H]2CCN(c3cccnc3)C2)ccc1=O` [I-49], the IC50 is above 5 µM.

`CCc1cc(=O)n(CC(=O)O)cc1NC(=O)[C@H]1CCCN(c2cccnc2)C1` [I-50, 2-[4-ethyl-2-oxo-5-[(3S)-1-(3-pyridyl)piperidine-3-carbonyl|amino]-1-pyridyl]acetic acid]: the 50% inhibitory concentration (IC50) fell in the range of 0.05 to 0.5 µM.

Consider `O=C(Nc1ccc(=O)n([C@@H](F)C(=O)O)c1)c1cccc(-c2cccnc2)c1` [I-51], for which the IC50 fell in the range of 0.5 to 5 µM.

Molecule `O=C(Nc1ccc(=O)n([C@H](F)C(=O)O)c1)c1cccc(-c2cccnc2)c1` [I-52] had an IC50 above 5 µM.

`CC1CC(C(=O)Nc2ccc(=O)n(CC(=O)O)c2)CN(c2cccnc2)C1` (centres unmarked) [I-53] registered an IC50 of 0.05 to 0.5 µM.

The molecule `CCc1cc(=O)n(CC(=O)O)cc1NC(=O)c1cccc(-c2cccnc2)c1` [I-54] yielded an IC50 of 0.05 to 0.5 µM.

In turn, `O=C(O)Cc1cc(NC(=O)c2cccc(-c3cccnc3)c2)ccc1F` [I-55] registered a half-inhibitory concentration (IC50) of 0.5 to 5 µM.

As for `O=C(O)Cn1cc(Nc2ncc(-c3cccnc3)c3ccccc23)ccc1=O` [I-56], the IC50 lay within 0.5 to 5 µM.

The molecule `O=C(O)Cn1cc(NC(=O)[C@H]2CCCN(c3cccnc3)C2)c(C2CC2)cc1=O` [I-57] had an IC50 above 5 µM.

Regarding `O=C(O)Cn1cc(NC(=O)[C@@H]2CCCN(c3cccnc3)C2)c(C2CC2)cc1=O` [I-58], the IC50 lay within 0.5 to 5 µM.

`CC(C)c1cc(=O)n(CC(=O)O)cc1NC(=O)c1cccc(-c2cccnc2)c1` [I-59] had an IC50 of 0.05 to 0.5 µM.

Molecule `O=C(O)Cc1cc(NC(=O)c2cccc(-c3cccnc3)c2)ccc1Cl` [I-60] had a concentration for half-maximal inhibition (IC50) of 0.5 to 5 µM.

In turn, `CC1CCN(c2cccnc2)CC1C(=O)Nc1ccc(=O)n(CC(=O)O)c1` (centres unmarked) [I-61] showed a half-maximal inhibitory concentration (IC50) of 0.05 to 0.5 µM.

`O=C(O)Cn1cc(NC(=O)c2cccc(-c3cccnc3)c2)c(C2CC2)cc1=O` [I-62] returned an IC50 of 0.5 to 5 µM.

In turn, `O=C(O)Cn1cc(NC(=O)[C@@H]2CCCN(c3cccnc3)C2)c(C(F)(F)F)cc1=O` [I-63] gave an IC50 of 0.5 to 5 µM.

`O=C(O)Cn1cc(NC(=O)[C@H]2C[C@H](C(F)(F)F)CN(c3cccnc3)C2)ccc1=O` [I-64] had a half-maximal inhibitory concentration (IC50) of 0.05 to 0.5 µM.

For the molecule `O=C(O)Cn1cc(NC(=O)[C@@H]2C[C@H](C(F)(F)F)CN(c3cccnc3)C2)ccc1=O` [I-65], the IC50 fell in the range of 0.05 to 0.5 µM.

Regarding `C[C@@]1(C(=O)Nc2ccc(=O)n(CC(=O)O)c2)CCCN(c2cccnc2)C1` [I-66], the IC50 lay in the range of 0.5 to 5 µM.

In the case of `O=C(O)Cn1cc(NC(=O)[C@H]2CCCN(c3cccnc3)C2)c(C(F)(F)F)cc1=O` [I-67], the IC50 was above 5 µM.

`O=C(O)Cn1cc(N2CCc3cc(-c4cccnc4)ccc3C2=O)ccc1=O` [I-68]: the IC50 lay within 0.5 to 5 µM.

Consider `N#CCn1cc(NC(=O)c2cccc(-c3cccnc3)c2)ccc1=O` [I-69], for which the IC50 is above 5 µM.

`Cc1c(NC(=O)c2cccc(-c3cccnc3)c2)ccc(=O)n1CC(=O)O` [I-70] had an IC50 above 5 µM.

The molecule `C[C@@H](C(=O)O)n1cc(NC(=O)c2cccc(-c3cccnc3)c2)ccc1=O` [I-71] returned an IC50 above 5 µM.

With `C[C@H](C(=O)O)n1cc(NC(=O)c2cccc(-c3cccnc3)c2)ccc1=O` [I-72], the IC50 lay in the range of 0.5 to 5 µM.

`O=C(O)Cn1cc(NC(=O)c2cccc(-c3cccnc3)c2)c(C(F)(F)F)cc1=O` [I-73]: the IC50 was 0.5 to 5 µM.

Consider `O=C(O)Cn1cc(N2CCc3cccc(-c4cccnc4)c3C2=O)ccc1=O` [I-74], for which the IC50 was above 5 µM.

In turn, `C[C@]1(C(=O)Nc2ccc(=O)n(CC(=O)O)c2)CCCN(c2cccnc2)C1` [I-75] gave an IC50 of 0.5 to 5 µM.

Take `CS(=O)(=O)NC(=O)Cn1cc(NC(=O)c2cccc(-c3cccnc3)c2)ccc1=O` [I-78]: the IC50 is above 5 µM.

For another assay, the target named is T1, truncated His-MBP-Tev-KLHDC2 (residues 1-363). Description: KLHDC2 FP competition binding assay. To be noted: 15 nM KLHDC2 (residues 1-363), 10 nM fluorescein-labeled diglycine peptide probe, read-out: KLHDC2 binding Human FP: average external IC50.
Method: FP competition binding assays were performed using 15 nM truncated His -MBP-Tev-KLHDC2 (residues 1-363) purified from E. coli, 10 nM fluorescein-labeled diglycine peptide probe, and test compounds in assay buffer consisting of 50 mM HEPES-Na pH 7.5, 100 mM NaCl, 2 mM DTT, 0.005% Tween-20 with a final volume of 20 uL. Compound stocks were dissolved at 10 mM in 100% DMSO and 11 point titration with 3 fold serial dilution was performed in black, flat bottom 384 well microplates. Plates were incubated at room temperature for 30 minutes. Plates were centrifuged at 1000 rpm for 1 min, data were collected using an Envision plate reader in fluorescence polarization mode with excitation filter FITC FP at 480 nm, emission filter FITC FP P-pol at 535 nm and FITC FP S-pol at 535 nm. FP signal was calculated using the equation (mP=1000*(S-G*P)/(S+G*P), G-factor=1.0) and % Inhibition was calculated using no-protein controls for 100% inhibition and DMSO only reactions for 0l % inhibition (yes).
In the case of `O=C(O)Cn1cc(NC(=O)[C@@H]2CCN(c3cccnc3)C2)ccc1=O` [I-49], the IC50 was above 5 µM.

Regarding `CCc1cc(=O)n(CC(=O)O)cc1NC(=O)[C@H]1CCCN(c2cccnc2)C1` [I-50, 2-[4-ethyl-2-oxo-5-[(3S)-1-(3-pyridyl)piperidine-3-carbonyl|amino]-1-pyridyl]acetic acid], the IC50 was in the range of 0.5 to 5 µM.

Regarding `O=C(Nc1ccc(=O)n([C@@H](F)C(=O)O)c1)c1cccc(-c2cccnc2)c1` [I-51], the IC50 is above 5 µM.

For `O=C(Nc1ccc(=O)n([C@H](F)C(=O)O)c1)c1cccc(-c2cccnc2)c1` [I-52], the IC50 was above 5 µM.

Regarding `CC1CC(C(=O)Nc2ccc(=O)n(CC(=O)O)c2)CN(c2cccnc2)C1` (centres unmarked) [I-53], the IC50 lay within 0.5 to 5 µM.

As to `CCc1cc(=O)n(CC(=O)O)cc1NC(=O)c1cccc(-c2cccnc2)c1` [I-54], the IC50 was 0.5 to 5 µM.

With `O=C(O)Cc1cc(NC(=O)c2cccc(-c3cccnc3)c2)ccc1F` [I-55], the IC50 is above 5 µM.

`O=C(O)Cn1cc(Nc2ncc(-c3cccnc3)c3ccccc23)ccc1=O` [I-56]: the IC50 was above 5 µM.

Consider `O=C(O)Cn1cc(NC(=O)[C@H]2CCCN(c3cccnc3)C2)c(C2CC2)cc1=O` [I-57], for which the IC50 was above 5 µM.

In the case of `O=C(O)Cn1cc(NC(=O)[C@@H]2CCCN(c3cccnc3)C2)c(C2CC2)cc1=O` [I-58], the 50% inhibitory concentration (IC50) is above 5 µM.

As to `CC(C)c1cc(=O)n(CC(=O)O)cc1NC(=O)c1cccc(-c2cccnc2)c1` [I-59], the IC50 lay in the range of 0.5 to 5 µM.

Turning to `O=C(O)Cc1cc(NC(=O)c2cccc(-c3cccnc3)c2)ccc1Cl` [I-60], the IC50 is above 5 µM.

As for `CC1CCN(c2cccnc2)CC1C(=O)Nc1ccc(=O)n(CC(=O)O)c1` (centres unmarked) [I-61], the IC50 lay in the range of 0.5 to 5 µM.

Regarding `O=C(O)Cn1cc(NC(=O)c2cccc(-c3cccnc3)c2)c(C2CC2)cc1=O` [I-62], the IC50 was above 5 µM.

Turning to `O=C(O)Cn1cc(NC(=O)[C@@H]2CCCN(c3cccnc3)C2)c(C(F)(F)F)cc1=O` [I-63], the IC50 was above 5 µM.

On to `O=C(O)Cn1cc(NC(=O)[C@H]2C[C@H](C(F)(F)F)CN(c3cccnc3)C2)ccc1=O` [I-64], for which the IC50 lay in the range of 0.5 to 5 µM.

For the molecule `O=C(O)Cn1cc(NC(=O)[C@@H]2C[C@H](C(F)(F)F)CN(c3cccnc3)C2)ccc1=O` [I-65], the IC50 was 0.5 to 5 µM.

With `C[C@@]1(C(=O)Nc2ccc(=O)n(CC(=O)O)c2)CCCN(c2cccnc2)C1` [I-66], the IC50 was above 5 µM.

On to `O=C(O)Cn1cc(NC(=O)[C@H]2CCCN(c3cccnc3)C2)c(C(F)(F)F)cc1=O` [I-67], for which the IC50 is above 5 µM.

For `O=C(O)Cn1cc(N2CCc3cc(-c4cccnc4)ccc3C2=O)ccc1=O` [I-68], the IC50 was above 5 µM.

As to `N#CCn1cc(NC(=O)c2cccc(-c3cccnc3)c2)ccc1=O` [I-69], the IC50 was above 5 µM.

Consider `Cc1c(NC(=O)c2cccc(-c3cccnc3)c2)ccc(=O)n1CC(=O)O` [I-70], for which the IC50 was above 5 µM.

With `C[C@@H](C(=O)O)n1cc(NC(=O)c2cccc(-c3cccnc3)c2)ccc1=O` [I-71], the IC50 is above 5 µM.

Consider `C[C@H](C(=O)O)n1cc(NC(=O)c2cccc(-c3cccnc3)c2)ccc1=O` [I-72], for which the IC50 was above 5 µM.

Take `O=C(O)Cn1cc(NC(=O)c2cccc(-c3cccnc3)c2)c(C(F)(F)F)cc1=O` [I-73]: the half-maximal inhibitory concentration (IC50) was above 5 µM.

On to `O=C(O)Cn1cc(N2CCc3cccc(-c4cccnc4)c3C2=O)ccc1=O` [I-74], for which the IC50 is above 5 µM.

For the molecule `C[C@]1(C(=O)Nc2ccc(=O)n(CC(=O)O)c2)CCCN(c2cccnc2)C1` [I-75], the IC50 lay in the range of 0.5 to 5 µM.

In the case of `CS(=O)(=O)NC(=O)Cn1cc(NC(=O)c2cccc(-c3cccnc3)c2)ccc1=O` [I-78], the IC50 is above 5 µM.
